Reference: patent US20250340537A1, “PHARMACEUTICALLY ACTIVE COMPOUNDS, COMPOSITIONS, AND METHODS FOR MODULATING PENDRIN” (ARBORMED Co., Ltd., priority 2022, published 2025)

The compounds below were run against T1, H723R-pendrin (Homo sapiens, UniProt O43511, H723R) (assay: YFP fluorescence quenching assay (Cl−/I− exchange activity of pendrin)). Conditions: PANC-1 cells stably expressing human H723R-pendrin and YFP-F46L/H148Q/I152L; compound incubation 20-24 hours; iodide influx.
T1 construct: expressed in transfected cells; host or cells: PANC-1
T1 sequence (O43511 1-780 H723R): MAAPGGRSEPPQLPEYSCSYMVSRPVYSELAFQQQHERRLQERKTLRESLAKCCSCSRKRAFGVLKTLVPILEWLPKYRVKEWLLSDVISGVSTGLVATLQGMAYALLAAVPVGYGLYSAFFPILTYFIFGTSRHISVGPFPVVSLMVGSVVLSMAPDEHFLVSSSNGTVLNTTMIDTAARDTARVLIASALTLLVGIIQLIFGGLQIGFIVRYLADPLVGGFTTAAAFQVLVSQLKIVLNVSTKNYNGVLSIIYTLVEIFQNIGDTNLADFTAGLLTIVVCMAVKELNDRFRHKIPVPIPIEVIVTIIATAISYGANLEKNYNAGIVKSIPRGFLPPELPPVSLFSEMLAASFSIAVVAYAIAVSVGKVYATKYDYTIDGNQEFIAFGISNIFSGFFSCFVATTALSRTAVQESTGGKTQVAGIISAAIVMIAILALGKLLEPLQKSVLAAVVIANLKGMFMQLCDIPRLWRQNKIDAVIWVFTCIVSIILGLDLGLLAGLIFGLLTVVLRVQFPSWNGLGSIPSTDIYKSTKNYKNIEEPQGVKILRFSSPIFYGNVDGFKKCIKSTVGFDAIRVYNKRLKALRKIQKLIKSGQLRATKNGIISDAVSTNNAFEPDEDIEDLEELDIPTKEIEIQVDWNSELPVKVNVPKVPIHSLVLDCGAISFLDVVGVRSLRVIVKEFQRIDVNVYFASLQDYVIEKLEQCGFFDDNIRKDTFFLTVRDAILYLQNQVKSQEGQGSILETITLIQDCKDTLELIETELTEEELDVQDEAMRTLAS
Type: cell-based
How it was run: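 PANC-1 cells stably co-expressing human H723R-pendrin and YFP-F46L/H148Q/I152L, treated with compounds for 20-24 h at 37 °C. Initial iodide influx rate after NaI-substituted HEPES buffer (pH 7.4) addition, taken from the initial slope of YFP fluorescence quench by nonlinear regression. EC50 reported in bins.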
Compound `NC1=C(c2cncc(-c3ccc(O)c(O)c3)n2)C(=O)CN1c1ccccc1Cl` [Compound 9] has an EC50 of under 5 µM.
Compound `NC1=C(c2cncc(-c3ccc(O)c(O)c3)n2)C(=O)CN1CC1CCCC1` [Compound 18] has an EC50 of under 5 µM.
Compound `COc1cc(-c2nccc(C3=C(N)N(CC4CCCC4)CC3=O)n2)ccc1O` [Compound 105] has an EC50 of under 5 µM.
